This is an account of results in article PMC9369007 (International Journal of Molecular Sciences, 2022).

One data set concerns MCF-7 cells. The data set is described as follows: MTT cytotoxicity assay, MCF-7. The following applies: Homo sapiens, MCF7, 72 h, read-out: In Vitro Cytotoxicity IC50 MCF-7.
The next data set relates to HepG2 cells. In words: MTT cytotoxicity assay, HepG2. The following applies: Homo sapiens, HepG2, 72 h, read-out: In Vitro Cytotoxicity IC50 HepG2. In general terms: Formazan colour is commonly taken as a measure of viable cells.
The test system of the next data set is HCT116 cells. The data set is described as follows: MTT cytotoxicity assay, HCT116. The following applies: Homo sapiens, HCT-116, 72 h, read-out: In Vitro Cytotoxicity IC50 HCT116.
A further data set concerns the target LSD1 demethylase (Homo sapiens, UniProt O60341). In words: LSD1 demethylase inhibition assay.
The test system of the next data set is LSD1. The following applies: Figure 1, reported LSD1 inhibitors; cited from earlier work.
Another data set can be described thus: in vitro. The following applies: human, WI38 normal lung fibroblast cells.
Another data set has as its system HepG2 and MCF-7 cells. In words: DNA fragmentation, diphenylamine test. The data set is classed as cell-based, human. The following applies: 24 h at IC50 value, untreated control about 4.7 ± 0.2%. The method, then:
Apoptosis is characterized by DNA fragmentation, which occurs in all stages of the process. The percentage of fragmented DNA released into the cytoplasm from apoptotic nuclei was determined using a diphenylamine test.
DNA fragmentation was quantitatively determined using a diphenylamine (DPA) reagent according to the method of Boraschi and Maurizi.

[1] abbreviates: LSD1 inhibitory IC50, Table 2, mean ± S.D., at least three tests.
The mark [2] stands for this setting: LSD1 inhibition IC50, as quoted in the docking section.

One may read the melting point as the temperature, or range, at which the solid turns liquid. A word on the IC50: it is the midpoint of a concentration-inhibition curve.

Procedure for HCT116 cells: (§1) The in vitro cytotoxic testing of novel derivatives was performed against different three cancer cell lines, HepG2, MCF-7, and HCT116, using standard MTT assay as previously reported [22, 62, 63, 64].
Procedure for HepG2 cells: as §1
Procedure for LSD1 demethylase: The inhibition of LSD1 activity by our tested compounds was evaluated according to a previously reported procedure [65, 66, 67, 68] and as mentioned in the assay kit in Supplementary Materials.

Take `Cn1c(-c2cc(-c3n[nH]c(=S)n3C)cc(-c3n[nH]c(=S)n3C)c2)n[nH]c1=S` [Compound 18, 3,3′,3″-(benzene-1,3,5-triyl)tris(4-methyl-1H-1,2,4-triazole-5(4H)-thione)]: the melting point lay in the range of 279 to 281 °C. Also, the IC50 with MCF-7 cells was 23.9 ± 0.52 µM. Besides, the IC50 in the data set on HepG2 cells is 26.1 ± 0.76 µM. The IC50 with HCT116 cells was found to be 38.6 ± 0.75 µM. The IC50 against LSD1 demethylase (setting [1]) was 1510 ± 75 nM.
On to `Cc1ccc(Cn2cc(CSC(=S)N3CCN(C(=O)OC(C)(C)C)CC3)nn2)cc1` [Compound 8], for which, in the data set on LSD1, the IC50 is 650 nM.
Compound `c1c(-c2nnc(NC3CCCCC3)s2)cc(-c2nnc(NC3CCCCC3)s2)cc1-c1nnc(NC2CCCCC2)s1` [Compound 26, 5,5′,5″-(benzene-1,3,5-triyl)tris(N-cyclohexyl-1,3,4-thiadiazol-2-amine)] returned a melting point of 218 to 219 °C. For the same compound, in the data set with MCF-7 cells, the IC50 was determined as 17.1 ± 3.1 µM. Moreover, the IC50 with HepG2 cells is 95.7 ± 3.1 µM. Further, in the data set on HCT116 cells, the IC50 was found to be 17.6 ± 0.71 µM. Moreover, at LSD1 demethylase (setting [1]), 311 ± 15 nM corresponded to half-maximal inhibition (IC50).
Take `CCCSc1nc(Sc2nnc(C)s2)c2nnn(CCO)c2n1` [Compound 7]: the IC50 in the data set with LSD1 was 3930 nM.
For the compound `S=c1[nH]nc(-c2cc(-c3n[nH]c(=S)n3-c3ccccc3)cc(-c3n[nH]c(=S)n3-c3ccccc3)c2)n1-c1ccccc1` [Compound 23, 3,3′,3″-(benzene-1,3,5-triyl)tris(4-phenyl-1H-1,2,4-triazole-5(4H)-thione)], the melting point lay within 229 to 230 °C. Further, in the data set on MCF-7 cells, the IC50 was determined as 26.1 ± 0.69 µM. In addition, the IC50 in the data set with HepG2 cells came to 5.49 ± 0.38 µM. Further, in the data set with HCT116 cells, the IC50 was 2.01 ± 0.91 µM. On LSD1 demethylase (setting [2]), this compound came in with an IC50 of 65.1 nM. The IC50 against LSD1 demethylase (setting [1]) worked out at 65 ± 3 nM.
Regarding `c1ccc(Nc2nnc(-c3cc(-c4nnc(Nc5ccccc5)s4)cc(-c4nnc(Nc5ccccc5)s4)c3)s2)cc1` [Compound 28, 5,5′,5″-(benzene-1,3,5-triyl)tris(N-phenyl-1,3,4-thiadiazol-2-amine)], the melting point was in the range of 204 to 205 °C. Further, the IC50 in the data set on MCF-7 cells stood at 2.34 ± 2.3 µM. For the same compound, the IC50 in the data set with HepG2 cells worked out at 25.6 ± 0.18 µM. Besides, in the data set on HCT116 cells, the IC50 amounted to 110 ± 0.85 µM. Also, the IC50 on LSD1 demethylase (setting [1]) is 210 ± 10 nM.
`S=c1[nH]nc(-c2cc(-c3n[nH]c(=S)n3Cc3ccccc3)cc(-c3n[nH]c(=S)n3Cc3ccccc3)c2)n1Cc1ccccc1` [Compound 22, 3,3′,3″-(benzene-1,3,5-triyl)tris(4-benzyl-1H-1,2,4-triazole-5(4H)-thione)] displayed a melting point of 240 to 241 °C. The same compound gave an IC50 at 72 h in the data set “in vitro” of 16 ± 0.52 µM. Further, the IC50 with MCF-7 cells was found to be 2.65 ± 0.23 µM. The IC50 with HepG2 cells stood at 8.23 ± 0.85 µM. Also, the IC50 in the data set on HCT116 cells was found to be 5.27 ± 0.16 µM. On LSD1 demethylase (setting [2]), this compound showed an IC50 of 46.4 nM. Besides, the IC50 at LSD1 demethylase (setting [1]) is 74 ± 2 nM.
`CNc1nnc(-c2cc(-c3nnc(NC)s3)cc(-c3nnc(NC)s3)c2)s1` [Compound 24, 5,5′,5″-(benzene-1,3,5-triyl)tris(N-methyl-1,3,4-thiadiazol-2-amine)] displayed a melting point of 247 to 248 °C. For the same compound, the IC50 in the data set with MCF-7 cells stood at 9.2 ± 0.31 µM. Besides, in the data set on HepG2 cells, the IC50 amounted to 6.47 ± 0.69 µM. Besides, the IC50 with HCT116 cells came to 18.1 ± 1.05 µM. This compound also had an IC50 on LSD1 demethylase (setting [1]) of 450 ± 22 nM.
For `C=CCn1c(-c2cc(-c3n[nH]c(=S)n3CC=C)cc(-c3n[nH]c(=S)n3CC=C)c2)n[nH]c1=S` [Compound 21, 3,3′,3″-(benzene-1,3,5-triyl)tris(4-allyl-1H-1,2,4-triazole-5(4H)-thione)] the same measures were 287 to 288 °C, 5.83 ± 0.18 µM, 2.36 ± 0.34 µM, 3.56 ± 0.22 µM and 320 ± 16 nM.
The corresponding values for `CCNc1nnc(-c2cc(-c3nnc(NCC)s3)cc(-c3nnc(NCC)s3)c2)s1` [Compound 25, 5,5′,5″-(benzene-1,3,5-triyl)tris(N-ethyl-1,3,4-thiadiazol-2-amine)] are 233 to 234 °C, 28.1 ± 1.1 µM, 13 ± 0.71 µM, 28.9 ± 0.32 µM and 140 ± 7 nM.
The compound `CC(=O)O[C@H]1C(=O)[C@@]2(C)[C@H]([C@H](OC(=O)c3ccccc3)[C@]3(O)C[C@H](OC(=O)[C@H](O)[C@@H](NC(=O)c4ccccc4)c4ccccc4)C(C)=C1C3(C)C)[C@]1(OC(C)=O)CO[C@@H]1C[C@@H]2O` [Taxol, reference compound] yielded an IC50 at 72 h in the data set “in vitro” of 11.8 ± 0.44 µM. The figures for the IC50 with MCF-7 cells, in the data set on HepG2 cells and with HCT116 cells were 7.8 ± 0.42 µM, 4.44 ± 0.24 µM and 7.96 ± 0.38 µM, respectively.
Consider `S=c1[nH]nc(-c2cc(-c3n[nH]c(=S)n3C3CCCCC3)cc(-c3n[nH]c(=S)n3C3CCCCC3)c2)n1C1CCCCC1` [Compound 20, 3,3′,3″-(benzene-1,3,5-triyl)tris(4-cyclohexyl-1H-1,2,4-triazole-5(4H)-thione)], for which the melting point lay in the range of 251 to 252 °C. The “Percentage of DNA fragmentation” value in the data set with HepG2 and MCF-7 cells is “approximately 28.5 ± 1.5%”. Also, the IC50 with MCF-7 cells amounted to 13.7 ± 0.41 µM. Besides, the IC50 in the data set with HepG2 cells came out at 2.65 ± 0.69 µM. In addition, the IC50 with HCT116 cells was determined as 10.1 ± 0.37 µM. The IC50 against LSD1 demethylase (setting [1]) was 137 ± 6 nM.
`CCn1c(-c2cc(-c3n[nH]c(=S)n3CC)cc(-c3n[nH]c(=S)n3CC)c2)n[nH]c1=S` [Compound 19, 3,3′,3″-(benzene-1,3,5-triyl)tris(4-ethyl-1H-1,2,4-triazole-5(4H)-thione)]: the melting point lay in the range of 266 to 268 °C. Further, the IC50 in the data set on MCF-7 cells stood at 9.66 ± 0.76 µM. The IC50 with HepG2 cells was 55.3 ± 0.44 µM. Besides, the IC50 in the data set on HCT116 cells was 21.6 ± 0.16 µM. The compound also gave an IC50 against LSD1 demethylase (setting [1]) of 170 ± 8 nM.
